{"source": "patent US20140171357A1", "about": "“VANCOMYCIN DERIVATIVES” (Seachald Pharmaceuticals, Inc., priority 2011, published 2014)", "key": {"[1]": {"system": "vancomycin-susceptible E. faecalis (23)", "assay": "MIC broth microdilution, vancomycin-susceptible E. faecalis"}, "[2]": {"system": "VanB vancomycin-resistant E. faecalis (12)", "assay": "MIC broth microdilution, VanB E. faecalis"}, "VanC enterococci (22)": {"system": "VanC enterococci (22)", "assay": "MIC broth microdilution, vanC-carrying enterococci"}, "E. faecalis": {"system": "E. faecalis", "assay": "MIC broth microdilution, E. faecalis regardless of vancomycin susceptibility", "settings": "Enterococcus faecalis"}, "[3]": {"system": "methicillin-susceptible S. aureus (MSSA, 22)", "assay": "MIC broth microdilution, MSSA"}, "[4]": {"system": "Staphylococcus epidermidis (43 strains)", "assay": "MIC broth microdilution, S. epidermidis"}, "[5]": {"system": "methicillin-resistant S. aureus (MRSA, 22)", "assay": "MIC broth microdilution, MRSA"}, "[6]": {"system": "VanA vancomycin-resistant E. faecium (10)", "assay": "MIC broth microdilution, VanA E. faecium"}, "[7]": {"system": "VanA vancomycin-resistant E. faecalis (11)", "assay": "MIC broth microdilution, VanA E. faecalis"}, "[8]": {"system": "VanB vancomycin-resistant E. faecium (10)", "assay": "MIC broth microdilution, VanB E. faecium"}, "[9]": {"system": "Staphylococcus aureus (65 strains)", "assay": "MIC broth microdilution, S. aureus all isolates"}, "[10]": {"system": "vancomycin-susceptible E. faecium (21)", "assay": "MIC broth microdilution, vancomycin-susceptible E. faecium"}, "[11]": {"system": "vancomycin-intermediate S. aureus (VISA, 5)", "assay": "MIC broth microdilution, VISA"}, "[12]": {"system": "heterogeneous VISA (hVISA, 10)", "assay": "MIC broth microdilution, hVISA"}, "S. pneumoniae (22)": {"system": "S. pneumoniae (22)", "assay": "MIC broth microdilution, S. pneumoniae", "settings": "S. pneumoniae (22); MHB + lysed horse blood"}, "S. aureus ATCC 25923": {"system": "S. aureus ATCC 25923", "assay": "Neutropenic murine thigh infection model", "settings": "for AUCc-t (AUC difference between control and treated animals): 24 h time kill"}, "[13]": {"system": "β-hemolytic streptococci (23)", "assay": "MIC broth microdilution, β-hemolytic streptococci", "settings": "β-hemolytic streptococci (23); MHB + lysed horse blood"}, "[14]": {"system": "vancomycin-resistant S. aureus (VRSA, 6)", "assay": "MIC broth microdilution, VRSA"}, "[15]": {"settings": "E. faecalis, vancomycin-susceptible (23)"}, "[16]": {"settings": "1 mg/kg single intraperitoneal dose"}, "[17]": {"settings": "4 mg/kg single intraperitoneal dose"}, "[18]": {"settings": "16 mg/kg single intraperitoneal dose"}, "[19]": {"settings": "S. aureus (65), all resistance subsets"}, "[20]": {"settings": "E. faecium, vancomycin-susceptible (21)"}}, "data": [{"smiles": "CC(=O)NC[C@H]1CN(c2ccc(N3CCOCC3)c(F)c2)C(=O)O1", "note": "[Linezolid, reference compound]", "values": [{"measurement": "MIC50", "setting": "[1]; Enterococcus faecalis", "result": 1, "unit": "µg/mL"}, {"measurement": "MIC90", "setting": "[1]; Enterococcus faecalis", "result": 1, "unit": "µg/mL"}, {"measurement": "MIC50", "setting": "[2]; Enterococcus faecalis", "result": 1, "unit": "µg/mL"}, {"measurement": "MIC90", "setting": "[2]; Enterococcus faecalis", "result": 1, "unit": "µg/mL"}, {"measurement": "MIC50", "setting": "VanC enterococci (22)", "result": 1, "unit": "µg/mL"}, {"measurement": "MIC90", "setting": "VanC enterococci (22)", "result": 2, "unit": "µg/mL"}, {"measurement": "MIC50", "setting": "E. faecalis", "result": 1, "unit": "µg/mL"}, {"measurement": "MIC90", "setting": "E. faecalis", "result": 1, "unit": "µg/mL"}, {"measurement": "MIC50", "setting": "[3]; Staphylococcus aureus, MSSA", "result": 1, "unit": "µg/mL"}, {"measurement": "MIC90", "setting": "[3]; Staphylococcus aureus, MSSA", "result": 1, "unit": "µg/mL"}, {"measurement": "MIC50", "setting": "[4]; Staphylococcus epidermidis", "result": 0.5, "unit": "µg/mL"}, {"measurement": "MIC90", "setting": "[4]; Staphylococcus epidermidis", "result": 1, "unit": "µg/mL"}, {"measurement": "MIC50", "setting": "[5]; Staphylococcus aureus, MRSA", "result": 1, "unit": "µg/mL"}, {"measurement": "MIC90", "setting": "[5]; Staphylococcus aureus, MRSA", "result": 1, "unit": "µg/mL"}, {"measurement": "MIC50", "setting": "[6]; Enterococcus faecium", "result": 1, "unit": "µg/mL"}, {"measurement": "MIC90", "setting": "[6]; Enterococcus faecium", "result": 1, "unit": "µg/mL"}, {"measurement": "MIC50", "setting": "[7]; Enterococcus faecalis", "result": 1, "unit": "µg/mL"}, {"measurement": "MIC90", "setting": "[7]; Enterococcus faecalis", "result": 1, "unit": "µg/mL"}, {"measurement": "MIC50", "setting": "[8]; Enterococcus faecium", "result": 1, "unit": "µg/mL"}, {"measurement": "MIC90", "setting": "[8]; Enterococcus faecium", "result": 1, "unit": "µg/mL"}, {"measurement": "MIC50", "setting": "[9]; Staphylococcus aureus", "result": 1, "unit": "µg/mL"}, {"measurement": "MIC90", "setting": "[9]; Staphylococcus aureus", "result": 1, "unit": "µg/mL"}, {"measurement": "MIC50", "setting": "[10]; Enterococcus faecium", "result": 1, "unit": "µg/mL"}, {"measurement": "MIC90", "setting": "[10]; Enterococcus faecium", "result": 2, "unit": "µg/mL"}]}, {"smiles": "CNC(CC(C)C)C(=O)NC1C(=O)NC(CC(N)=O)C(=O)NC2C(=O)NC3C(=O)NC(C(=O)NC(C(=O)NCCOCCOCCN)c4cc(O)cc(O)c4-c4cc3ccc4O)C(O)c3ccc(c(Cl)c3)Oc3cc2cc(c3OC2OC(CO)C(O)C(O)C2OC2CC(C)(NCc3ccc(-c4ccc(Cl)cc4)cc3)C(O)C(C)O2)Oc2ccc(cc2Cl)C1O", "note": "(stereo not drawn) [Compound 9]", "values": [{"measurement": "MIC 50%", "setting": "[1]; [15]", "result": 0.12, "unit": "µg/mL"}, {"measurement": "MIC 90%", "setting": "[1]; [15]", "result": 0.25, "unit": "µg/mL"}, {"measurement": "MIC 50%", "setting": "[11]", "result": 0.25, "unit": "µg/mL"}, {"measurement": "MIC 50%", "setting": "[2]; E. faecalis, VanB (12)", "result": 0.25, "unit": "µg/mL"}, {"measurement": "MIC 90%", "setting": "[2]; E. faecalis, VanB (12)", "result": 0.25, "unit": "µg/mL"}, {"measurement": "MIC 50%", "setting": "VanC enterococci (22); VanC enterococci (22)", "result": 0.12, "unit": "µg/mL"}, {"measurement": "MIC 90%", "setting": "VanC enterococci (22); VanC enterococci (22)", "result": 0.5, "unit": "µg/mL"}, {"measurement": "MIC 50%", "setting": "[3]; MSSA (22)", "result": 0.12, "unit": "µg/mL"}, {"measurement": "MIC 90%", "setting": "[3]; MSSA (22)", "result": 0.12, "unit": "µg/mL"}, {"measurement": "MIC 50%", "setting": "[4]; S. epidermidis (43)", "result": 0.06, "unit": "µg/mL"}, {"measurement": "MIC 90%", "setting": "[4]; S. epidermidis (43)", "result": 0.06, "unit": "µg/mL"}, {"measurement": "MIC 50%", "setting": "[12]", "result": 0.12, "unit": "µg/mL"}, {"measurement": "MIC 90%", "setting": "[12]", "result": 0.12, "unit": "µg/mL"}, {"measurement": "MIC 50%", "setting": "S. pneumoniae (22)", "result": 0.06, "unit": "µg/mL"}, {"measurement": "MIC 90%", "setting": "S. pneumoniae (22)", "result": 0.06, "unit": "µg/mL"}, {"measurement": "Max Kill (maximum decrease from initial infection level)", "setting": "S. aureus ATCC 25923; [16]", "result": 0.98, "unit": "Log10 CFU/thigh"}, {"measurement": "AUCc-t (AUC difference between control and treated animals)", "setting": "S. aureus ATCC 25923; [16]", "result": "7.4 (Log10 CFU/thigh)/hr"}, {"measurement": "Max Kill (maximum decrease from initial infection level)", "setting": "S. aureus ATCC 25923; [17]", "result": 0.5, "unit": "Log10 CFU/thigh"}, {"measurement": "AUCc-t (AUC difference between control and treated animals)", "setting": "S. aureus ATCC 25923; [17]", "result": "17.2 (Log10 CFU/thigh)/hr"}, {"measurement": "Max Kill (maximum decrease from initial infection level)", "setting": "S. aureus ATCC 25923; [18]", "result": "−0.01", "unit": "Log10 CFU/thigh"}, {"measurement": "AUCc-t (AUC difference between control and treated animals)", "setting": "S. aureus ATCC 25923; [18]", "result": "24.6 (Log10 CFU/thigh)/hr"}, {"measurement": "MIC 50%", "setting": "[13]", "result": 0.06, "unit": "µg/mL"}, {"measurement": "MIC 90%", "setting": "[13]", "result": 0.12, "unit": "µg/mL"}, {"measurement": "MIC 50%", "setting": "[5]; MRSA (22)", "result": 0.12, "unit": "µg/mL"}, {"measurement": "MIC 90%", "setting": "[5]; MRSA (22)", "result": 0.12, "unit": "µg/mL"}, {"measurement": "MIC 50%", "setting": "[6]; E. faecium, VanA (10)", "result": 1, "unit": "µg/mL"}, {"measurement": "MIC 90%", "setting": "[6]; E. faecium, VanA (10)", "result": 2, "unit": "µg/mL"}, {"measurement": "MIC 50%", "setting": "[7]; E. faecalis, VanA (11)", "result": 4, "unit": "µg/mL"}, {"measurement": "MIC 90%", "setting": "[7]; E. faecalis, VanA (11)", "result": 8, "unit": "µg/mL"}, {"measurement": "MIC 50%", "setting": "[8]; E. faecium, VanB (10)", "result": 0.06, "unit": "µg/mL"}, {"measurement": "MIC 90%", "setting": "[8]; E. faecium, VanB (10)", "result": 0.12, "unit": "µg/mL"}, {"measurement": "MIC 50%", "setting": "[9]; [19]", "result": 0.12, "unit": "µg/mL"}, {"measurement": "MIC 90%", "setting": "[9]; [19]", "result": 0.5, "unit": "µg/mL"}, {"measurement": "MIC 50%", "setting": "[14]", "result": 4, "unit": "µg/mL"}, {"measurement": "MIC 50%", "setting": "[10]; [20]", "result": 0.06, "unit": "µg/mL"}, {"measurement": "MIC 90%", "setting": "[10]; [20]", "result": 0.12, "unit": "µg/mL"}]}]}
